# Assay results as given in publication doi:10.1101/2022.07.25.501471v5 (biorxiv, 2023).
# Key:
# CreTPT2 (His-CreTPT2) = molecular target: T1, CreTPT2 (His-CreTPT2) (Chlamydomonas reinhardtii, UniProt A0A2K3DMX1); assay: inhibition of […]Pi uptake into proteoliposomes; type: cell-based; conditions: competitive; 0.25 mM external Pi, 30 mM Pi inside, competitor 0.05-5 mM, 4 min
# T1 sequence (A0A2K3DMX1 71-401): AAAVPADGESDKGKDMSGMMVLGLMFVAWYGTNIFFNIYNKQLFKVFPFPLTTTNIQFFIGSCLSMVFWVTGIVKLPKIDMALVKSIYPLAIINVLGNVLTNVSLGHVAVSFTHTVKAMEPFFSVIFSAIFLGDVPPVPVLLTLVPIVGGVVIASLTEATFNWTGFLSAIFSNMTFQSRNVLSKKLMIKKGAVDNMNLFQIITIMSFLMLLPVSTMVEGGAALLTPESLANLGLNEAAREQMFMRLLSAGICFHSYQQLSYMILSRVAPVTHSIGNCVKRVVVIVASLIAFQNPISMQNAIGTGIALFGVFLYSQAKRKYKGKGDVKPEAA
# CreTPT3 (His-CreTPT3) = molecular target: T2, CreTPT3 (His-CreTPT3) (Chlamydomonas reinhardtii, UniProt A8HN02); assay: inhibition of […]Pi uptake into proteoliposomes; type: cell-based; conditions: competitive; 0.25 mM external Pi, 30 mM Pi inside, competitor 0.05-5 mM, 4 min
# T2 sequence (A8HN02 61-406): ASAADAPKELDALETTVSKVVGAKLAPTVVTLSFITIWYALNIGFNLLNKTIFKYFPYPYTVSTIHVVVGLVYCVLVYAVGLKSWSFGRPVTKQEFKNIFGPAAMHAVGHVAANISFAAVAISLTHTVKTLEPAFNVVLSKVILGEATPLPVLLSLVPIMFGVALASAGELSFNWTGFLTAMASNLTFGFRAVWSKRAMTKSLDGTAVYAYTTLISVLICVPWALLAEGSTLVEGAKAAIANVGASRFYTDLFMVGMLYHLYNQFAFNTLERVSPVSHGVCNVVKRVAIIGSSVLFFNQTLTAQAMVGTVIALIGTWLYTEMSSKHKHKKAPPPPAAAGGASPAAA
SMILES,Ki (CreTPT2 (His-CreTPT2)) [mM],Ki (CreTPT3 (His-CreTPT3)) [mM]
O=C(O)[C@H](O)COP(=O)(O)O [3-PGA],0.78 ± 0.19,0.79 ± 0.122
O=C(CO)COP(=O)(O)O [DHAP],0.71 ± 0.12,0.57 ± 0.013
